Results reported in PMC5182151 (International journal of pharmaceutics, 2016).

How the values were obtained:
physchem = assay type: physicochemical
[1] = Stability of VD3-TyroSphere formulations during storage; assay type: physicochemical; conditions: in Transcutol (1mg/ml), 2 months storing at room temperature
[2] = VD3 dispersion in water, UV light for 9.5h; ref Luo et al., 2012; cited from earlier work

Structure (SMILES): C=C1CC[C@H](O)C/C1=C/C=C1\CCC[C@]2(C)[C@@H]([C@H](C)CCCC(C)C)CC[C@@H]12 [VD3, cholecalciferol]
- half-life (physchem): 76 h
- drug lost in first 24h exposure to UV light (physchem; VD3 in methanol solution, 254 nm UV): ~20%
- photodegradation rate constant (zero-order) (physchem; VD3 in methanol, 254 nm UV): -1.194 µg/mL/h
- VD3 left after 134 h UV exposure (physchem; methanol formulation, 254 nm UV): 21%
- VD3 detected [1]: 2%
- VD3 remained after UV exposure [2]: about 30%
